Settings: for mass density: 101.33 kPa, Liquid, Buoyancy - hydrostatic balance with magnetic suspension - one sinker

CCCCn1cc[n+](C)c1C.F[P-](F)(F)(F)(F)F [1-butyl-2,3-dimethylimidazolium hexafluorophosphate]
Wilhelmy plate
Settings | surface tension liquid-gas [mN/m]
298.17 K | 44.42
313.07 K | 43.73
323.27 K | 43.16
333.13 K | 42.6
338.38 K | 42.38
343.51 K | 42.13
348.43 K | 41.89
353.08 K | 41.68
358.76 K | 41.41
364.84 K | 41.11

CCCCCCCCCn1cc[n+](C)c1.F[P-](F)(F)(F)(F)F [1-nonyl-3-methylimidazolium hexafluorophosphate]
surface tension liquid-gas [mN/m]
Settings | Ring tensiometer | Wilhelmy plate
288.14 K | – | 33.2
288.18 K | 33.64 | –
293.07 K | 33.26 | 32.96
298.13 K | 32.86 | –
298.16 K | – | 32.7
303.11 K | – | 32.48
303.12 K | 32.8 | –
308.11 K | – | 32.27
308.13 K | 32.71 | –
313.16 K | – | 31.99
313.19 K | 32.4 | –
318.03 K | – | 31.76
318.06 K | 32.17 | –
323.07 K | – | 31.51
323.1 K | 31.89 | –
328 K | 31.7 | –
328.04 K | – | 31.25
332.93 K | 31.43 | –
332.95 K | – | 30.99
338.37 K | – | 30.75
338.49 K | 31.11 | –
343.34 K | – | 30.5
343.59 K | 30.88 | –
347.87 K | – | 30.23
347.9 K | 30.57 | –
352.81 K | – | 29.98
352.87 K | 30.32 | –
357.85 K | – | 29.76
358.12 K | 30.14 | –
365.11 K | 29.71 | –
365.22 K | – | 29.4

Settings | mass density [kg/m3]
293.11 K | 1216.29
298.18 K | 1212.6
303.15 K | 1209.57
308.14 K | 1205.42
313.21 K | 1201.39
318.08 K | 1197.66
323.13 K | 1193.94
328.02 K | 1190.39
332.95 K | 1186.82
338.45 K | 1183.02
343.45 K | 1179.31
348.02 K | 1176.28
352.94 K | 1172.76
358.11 K | 1168.91
365.13 K | 1163.68

CCCn1cc[n+](C)c1.F[P-](F)(F)(F)(F)F [1-methyl-3-propylimidazolium hexafluorophosphate]
surface tension liquid-gas [mN/m]
Settings | Ring tensiometer | Wilhelmy plate
293.21 K | – | 48.34
293.23 K | 47.98 | –
298.2 K | – | 47.99
298.23 K | 47.77 | –
303.01 K | – | 47.68
303.04 K | 48.03 | –
308.2 K | – | 47.36
308.21 K | 47.15 | –
313.17 K | – | 47.06
313.22 K | 47.18 | –
318.07 K | – | 46.74
318.17 K | 46.99 | –
323.11 K | – | 46.4
323.22 K | 46.76 | –
328.22 K | 46.09 | –
328.25 K | – | 46.06
333.39 K | 45.83 | –
333.45 K | – | 45.73
338.46 K | 45.38 | 45.41
343.28 K | 44.84 | –
343.3 K | – | 45.14
348.2 K | 44.8 | –
348.25 K | – | 44.78
352.68 K | – | 44.5
352.76 K | 44.38 | –
358.22 K | 43.88 | –
358.24 K | – | 44.23
364.96 K | – | 43.78
365.07 K | 43.64 | –

CCCCCCCn1cc[n+](C)c1.F[P-](F)(F)(F)(F)F [1-heptyl-3-methylimidazolium hexafluorophosphate]
Settings | mass density [kg/m3]
292.97 K | 1266.43
298.16 K | 1262.6
303.16 K | 1258.82
308.22 K | 1254.84
313.19 K | 1250.97
318.05 K | 1247.4
323.09 K | 1243.43
328.16 K | 1239.71
333.36 K | 1235.76
337.82 K | 1232.14
343.31 K | 1228.66
348.05 K | 1224.36
352.96 K | 1220.98
357.92 K | 1217.32
364.45 K | 1212.58

surface tension liquid-gas [mN/m]
Settings | Ring tensiometer | Wilhemly plate
293.23 K | 36.05 | –
293.26 K | – | 36.06
298.15 K | 35.87 | 35.89
303.13 K | 35.6 | –
303.15 K | – | 35.6
308.2 K | 35.31 | –
308.21 K | – | 35.41
313.22 K | – | 35.13
313.26 K | 35.14 | –
318.05 K | – | 34.87
318.08 K | 34.74 | –
323.21 K | 34.65 | –
323.22 K | – | 34.65
328.1 K | – | 34.39
328.18 K | 34.3 | –
333.37 K | 34.07 | 34.13
337.89 K | – | 33.91
338.05 K | 33.75 | –
343.31 K | 33.7 | –
343.34 K | – | 33.68
348.16 K | – | 33.32
348.26 K | 33.24 | –
353.04 K | – | 33.18
357.99 K | 33.04 | –
358.04 K | – | 32.96
364.54 K | 32.62 | –
364.61 K | – | 32.67

CCCCCn1cc[n+](C)c1.F[P-](F)(F)(F)(F)F [1-methyl-3-pentylimidazolium hexafluorophosphate]
surface tension liquid-gas [mN/m]
Settings | Ring tensiometer | Wilhelmy plate
262.89 K | 43.04 | –
268.06 K | 42.78 | –
273.2 K | – | 42.46
277.73 K | – | 42.19
277.78 K | 42.23 | –
283.1 K | 41.97 | –
283.17 K | – | 41.95
288.28 K | – | 41.53
288.29 K | 41.76 | –
292.81 K | 41.54 | 41.49
298.19 K | – | 41.24
298.2 K | 41.35 | –
303.11 K | 40.96 | –
303.12 K | – | 40.94
308.14 K | – | 40.68
308.16 K | 40.75 | –
313.06 K | 40.41 | 40.4
317.95 K | – | 40.17
317.98 K | 40.23 | –
323.19 K | 40.04 | –
323.2 K | – | 39.86
328.3 K | – | 39.63
328.37 K | 39.69 | –
333.51 K | 39.41 | –
333.52 K | – | 39.36
338.58 K | 39.09 | –
338.6 K | – | 39.1
342.99 K | 38.8 | –
343 K | – | 38.86
348.07 K | 38.64 | –
348.11 K | – | 38.64
353.27 K | 38.38 | –
353.3 K | – | 38.4
357.97 K | – | 38.11
358.34 K | 38.1 | –
362.98 K | – | 37.85

Settings | mass density [kg/m3]
267.86 K | 1351.91
273.05 K | 1348.4
283.12 K | 1339.58
288.38 K | 1335.51
292.83 K | 1332.19
298.17 K | 1328.15
303.2 K | 1324.24
308.22 K | 1318.91
313.1 K | 1315.32
317.98 K | 1311.51
323.18 K | 1307.37
328.4 K | 1303.77
333.5 K | 1299.9
338.86 K | 1295.93
342.93 K | 1292.1
348 K | 1288.64
353.25 K | 1284.49
358.27 K | 1281.15
362.73 K | 1277.18

CCCC[n+]1cccc(C)c1.F[P-](F)(F)(F)(F)F [1-butyl-3-methylpyridinium hexafluorophosphate]
Wilhelmy plate
Settings | surface tension liquid-gas [mN/m]
323.02 K | 43.24
327.6 K | 42.96
333.18 K | 42.58
338.24 K | 42.24
343.75 K | 41.89
348.09 K | 41.63
353.61 K | 41.3
358.09 K | 40.94
364.84 K | 40.51

Source: the NIST ThermoML archive (doi:10.1016/j.fluid.2014.10.029)
